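Dose response: 5 concentrations. Exposure: 48 h. Format: 96-well plates. Endpoint: linear interpolation; highest concentration if not reached. At the GI50, growth is halved. At the TGI there is no net growth.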 Where a SMILES comes first, the peptide text is derived from it. [ ]: non-standard residue; d: D form. The star is where a group is joined. X28 = COC1=CC(=O)N(C(=O)[C@@H](O*)C(C)C)[C@H]1Cc1ccccc1; NMeL = CN[C@@H](CC(C)C)C(=O)O; Hexanoyl = CCCCCC(=O)*
Legend:
Assay in all cases: NCI-60 cell line screen, 48 h
[1] = system: DLD-1 colon
[2] = system: DMS 273 small cell lung
[3] = system: LOX IMVI melanoma
[4] = system: LXFL 529 NSCLC
[5] = system: SNB-78 CNS
[6] = system: UACC-257 melanoma
[7] = system: XF 498 CNS
[8] = system: BT-549 breast
[9] = system: DMS 114 small cell lung
[10] = system: HS 578T breast
[11] = system: MDA-MB-435
[12] = system: RPMI-8226 leukemia
[13] = system: M19-MEL melanoma
[14] = system: HOP-18 NSCLC

SMILES	TGI [1]	TGI [2]	TGI [3]	TGI [4]	GI50 [5]	TGI [5]	TGI [6]	TGI [7]	TGI [8]	TGI [9]	TGI [10]	TGI [11]	TGI [12]	TGI [13]	TGI [14]
N#Cc1nn(-c2ccc(Cl)cc2)c(N)c2c(=N)n3nc(-c4ccccc4)cc3nc12	> 64.2 µM	> 100 µM	> 37.9 µM	> 54.4 µM	> 100 µM	> 100 µM	> 100 µM	> 100 µM	–	–	–	–	–	–	–
Cc1[nH]n(C(=O)c2ccccc2O)c(=O)c1/C=C1\C(=O)C=Cc2ccccc21	–	–	8.79 µM	42.4 µM	–	98.8 µM	26.6 µM	29 µM	73 µM	0.801 µM	> 100 µM	79.7 µM	31.1 µM	–	–
CC1OC(OP(=O)(OCc2ccccc2)OCc2ccccc2)C(OC(=O)c2ccccc2)C(OC(=O)c2ccccc2)C1I (stereo unspecified)	> 100 µM	> 100 µM	> 100 µM	> 100 µM	–	–	> 100 µM	> 100 µM	–	–	–	–	97.8 µM	> 100 µM	–
COc1cc(/C=C\c2ccc(SC)cc2)cc(OC)c1OC	> 100 µM	1.95 µM	45.2 µM	5.38 µM	–	> 100 µM	–	19.8 µM	> 100 µM	0.268 µM	> 100 µM	> 100 µM	25.2 µM	> 100 µM	11.6 µM
Cc1c(Cl)cccc1NC(=O)C(=O)C1C(=O)NC(=O)NC1=O	> 100 µM	> 100 µM	> 100 µM	> 100 µM	–	> 100 µM	> 100 µM	> 100 µM	–	–	–	–	> 100 µM	> 100 µM	> 100 µM
CCC(=O)O[C@@H]1C2C(OC(C)=O)C34COC(C)([C@@H]3C3C(C[C@]3(C)OC(C)=O)[C@@H](OC(=O)c3ccccc3)C4=O)[C@H](OC(C)=O)[C@@]2(OC(C)=O)C[C@@H]1C (stereo partly specified)	> 100 µM	> 100 µM	> 100 µM	> 100 µM	–	73.4 µM	> 100 µM	–	–	51.3 µM	–	–	> 100 µM	> 100 µM	> 100 µM
CCCCCCCCCCCCCC(=O)OCC1OC(OC)C(NC(=O)N(CCCl)N=O)C(O)C1O (stereo unspecified)	81.3 µM	47.1 µM	25.7 µM	38.8 µM	–	90.7 µM	30.2 µM	36.7 µM	–	57.3 µM	–	–	42.6 µM	–	> 100 µM
CC1(c2cccc(C3CCC4(C=CC3=O)OCCO4)c2)OCCO1 (stereo unspecified)	11 µM	22.9 µM	27.8 µM	3.97 µM	–	48.7 µM	21.5 µM	–	–	3.68 µM	41.8 µM	26.1 µM	28.9 µM	25.8 µM	–
O=Cc1cc(O)c(O)c(O)c1-c1c(C=O)cc(O)c(O)c1O	> 100 µM	> 100 µM	> 100 µM	> 100 µM	–	> 100 µM	> 100 µM	–	–	> 100 µM	–	–	> 100 µM	> 100 µM	> 100 µM
C[C@H](NC(=O)OC1C2C=CC(O)C1CC2)c1ccccc1 (stereo partly specified)	> 100 µM	> 100 µM	> 100 µM	> 100 µM	–	> 100 µM	> 100 µM	> 100 µM	–	> 100 µM	–	–	48.6 µM	–	> 100 µM
CC(=O)OC(C)(C)C1CCC(C)(C(O)COc2ccc(CCNC(=O)c3ccccc3)cc2)O1 (stereo unspecified)	> 100 µM	> 100 µM	> 100 µM	> 100 µM	–	> 100 µM	> 100 µM	33.4 µM	–	62.2 µM	–	–	> 100 µM	> 100 µM	> 100 µM
CC(=O)OC1COC(N2C(=O)C(=O)c3cc(Br)c([N+](=O)[O-])cc32)C(OC(C)=O)C1OC(C)=O (stereo unspecified)	> 100 µM	> 100 µM	99 µM	> 100 µM	–	> 100 µM	> 100 µM	> 100 µM	–	65.8 µM	–	–	> 100 µM	62.5 µM	> 100 µM
CCOC(=O)[C@H]1Nc2ccc(O)cc2C2c3ccccc3CC21 (stereo partly specified)	> 100 µM	> 100 µM	> 100 µM	> 100 µM	–	> 100 µM	> 100 µM	–	–	> 100 µM	–	–	> 100 µM	> 100 µM	> 100 µM
OC(Cn1cncn1)(Cn1cncn1)c1ccc(Cl)cc1Cl	> 100 µM	> 100 µM	> 100 µM	> 100 µM	–	> 100 µM	> 100 µM	–	–	> 100 µM	–	–	> 100 µM	> 100 µM	> 100 µM
Cn1cc(C(=O)C2CCCCC2)ccc1=O	> 100 µM	> 100 µM	> 100 µM	–	–	> 100 µM	–	> 100 µM	–	> 100 µM	–	–	> 100 µM	–	–
C[Si](C)(C)C#C[I+]c1ccccc1	40.9 µM	44.5 µM	41.2 µM	95.2 µM	–	> 100 µM	> 100 µM	> 100 µM	–	39.7 µM	–	–	–	83.7 µM	> 100 µM
CCC(C#N)N(Cc1cccc(CN(C(C)=O)C(C#N)CC)c1)C(C)=O (stereo unspecified)	–	–	> 100 µM	–	–	–	> 100 µM	–	> 100 µM	–	> 100 µM	> 100 µM	> 100 µM	–	–
CC(=O)c1nc2ccccc2n1CC(=O)c1ccc([N+](=O)[O-])cc1	–	–	23.2 µM	–	–	–	> 100 µM	–	52.6 µM	–	28.9 µM	> 100 µM	> 100 µM	–	–
CCCCCC(=O)N[C@H](C(=O)N[C@H](C(=O)N(C)[C@@H](CC(C)C)C(=O)N1CCC[C@H]1C(=O)N1CCC[C@H]1C(=O)O[C@H](C(=O)N1C(=O)C=C(OC)[C@@H]1Cc1ccccc1)C(C)C)C(C)C)C(C)C (Hexanoyl-VV[NMeL]PP-X28)	–	–	> 100 µM	–	–	–	> 100 µM	–	> 100 µM	–	> 100 µM	> 100 µM	> 100 µM	–	–
C#CCNC(Cc1ccccc1)C(=O)O (stereo unspecified)	–	–	> 100 µM	–	–	–	> 100 µM	–	> 100 µM	–	> 100 µM	> 100 µM	> 100 µM	–	–
C=C1C(=O)OC2C(C)C3C=CC(=O)[C@@]3(C)C(OC(=O)/C(C)=C/C)C1[C@@H]2OC(C)=O (stereo partly specified)	1.79 µM	1.81 µM	0.521 µM	1.16 µM	–	2.8 µM	1.66 µM	2.53 µM	0.682 µM	2.37 µM	–	0.86 µM	3.16 µM	1.84 µM	3.28 µM

Source: PubChem BioAssay (NCI)
